This passage reports binding results from article PMC4109837 (2014).

Test [1] has as its system NOX-S93 (L-RNA, aptamer, four 2'-deoxyribonucleotides (positions not given; Figure 1)) GCGUGAAUAGCCGUUGAAACGCCUUUAGAGAAGCACUAGCACGC
Briefly: neutralisation in S1PR3 calcium release cell assay, direct. Conditions: UltraCHO medium, 20 mM Hepes.

Test [2] has the same test system. The experiment in a line: competition in S1PR3 calcium release cell assay. The following applies: UltraCHO medium, 20 mM Hepes, 100 nM NOX-S93, 10 nM S1P.

For the compound `CCCCCCCCCCCCCCC[C@@H](O)[C@@H](N)COP(=O)(O)O`, the binding entry in test [1] (30 nM dihydro-S1P) is recorded as “yes”.

In the case of `CCCCCCCC/C=C\CCCCCCCC(=O)OC[C@@H](O)COP(=O)(O)O`, the binding result in test [1] (50 nM LPA, no inhibition) was “no”. As for `CCCCCCCCCCCC/C=C/[C@@H](O)[C@@H](N)COP(=O)(O)O`, the binding result in test [1] (10 nM C17-S1P) is recorded as “yes”. Consider `CCCCCCCCCCCCC/C=C/[C@@H](O)[C@H](CO)NC(C)=O`, for which the binding result in test [2] (up to 3 μM competitor) was “no”. As for `CCCCCCCCCCCCCCC/C=C/[C@@H](O)[C@@H](N)COP(=O)(O)O`, the binding result in test [1] (80 nM C20-S1P) is “yes”. Turning to `CCCCCCCCCCCCC/C=C/[C@@H](O)[C@@H](N)COP(=O)([O-])OCC[N+](C)(C)C`, the binding entry in test [2] (up to 300 nM competitor) is on record as “no”. Turning to `CCCCCCCCCCCCC/C=C/[C@@H](O)[C@@H](N)CO`, the binding result in test [2] (up to 1 μM competitor) was “no”.

`CCCCCCCCCCCCC/C=C/[C@@H](O)[C@@H](N)COP(=O)(O)O`: the binding result in test [1] (10 nM S1P) was “yes”. On to `CCCCCCCCCCCCC/C=C/[C@@H](O)[C@H](COP(=O)(O)O)NC(=O)CCCCCCCCCCCCCCC`, for which the binding result in test [2] (up to 3 μM competitor) is “no”.
